Activity calls are given as the source filed them. No cut-off for these calls is given here.
Tests used:
MV4-11 [1] = experiment: Increase in acetylation of histone H3 in human MV4-11 cells at 0.1 uM after 6 hrs by Western blot analysis; format: functional, cell-based
[2] = Cytotoxicity against primary normal human fibroblast cells assessed as inhibition of cell growth incubated for 72 hrs measured by spectrophotometer analysis; format: toxicity, cell-based
[3] = target: T1, Protein deacetylase HDAC6 (Homo sapiens, UniProt Q9UBN7); experiment: Inhibition of full length human recombinant HDAC6 expressed in Sf9 baculovirus system using FAM-labeled acetylated peptide as substrate by measuring fluorescence intensity by EMSA method
T1 sequence (Q9UBN7 whole entry): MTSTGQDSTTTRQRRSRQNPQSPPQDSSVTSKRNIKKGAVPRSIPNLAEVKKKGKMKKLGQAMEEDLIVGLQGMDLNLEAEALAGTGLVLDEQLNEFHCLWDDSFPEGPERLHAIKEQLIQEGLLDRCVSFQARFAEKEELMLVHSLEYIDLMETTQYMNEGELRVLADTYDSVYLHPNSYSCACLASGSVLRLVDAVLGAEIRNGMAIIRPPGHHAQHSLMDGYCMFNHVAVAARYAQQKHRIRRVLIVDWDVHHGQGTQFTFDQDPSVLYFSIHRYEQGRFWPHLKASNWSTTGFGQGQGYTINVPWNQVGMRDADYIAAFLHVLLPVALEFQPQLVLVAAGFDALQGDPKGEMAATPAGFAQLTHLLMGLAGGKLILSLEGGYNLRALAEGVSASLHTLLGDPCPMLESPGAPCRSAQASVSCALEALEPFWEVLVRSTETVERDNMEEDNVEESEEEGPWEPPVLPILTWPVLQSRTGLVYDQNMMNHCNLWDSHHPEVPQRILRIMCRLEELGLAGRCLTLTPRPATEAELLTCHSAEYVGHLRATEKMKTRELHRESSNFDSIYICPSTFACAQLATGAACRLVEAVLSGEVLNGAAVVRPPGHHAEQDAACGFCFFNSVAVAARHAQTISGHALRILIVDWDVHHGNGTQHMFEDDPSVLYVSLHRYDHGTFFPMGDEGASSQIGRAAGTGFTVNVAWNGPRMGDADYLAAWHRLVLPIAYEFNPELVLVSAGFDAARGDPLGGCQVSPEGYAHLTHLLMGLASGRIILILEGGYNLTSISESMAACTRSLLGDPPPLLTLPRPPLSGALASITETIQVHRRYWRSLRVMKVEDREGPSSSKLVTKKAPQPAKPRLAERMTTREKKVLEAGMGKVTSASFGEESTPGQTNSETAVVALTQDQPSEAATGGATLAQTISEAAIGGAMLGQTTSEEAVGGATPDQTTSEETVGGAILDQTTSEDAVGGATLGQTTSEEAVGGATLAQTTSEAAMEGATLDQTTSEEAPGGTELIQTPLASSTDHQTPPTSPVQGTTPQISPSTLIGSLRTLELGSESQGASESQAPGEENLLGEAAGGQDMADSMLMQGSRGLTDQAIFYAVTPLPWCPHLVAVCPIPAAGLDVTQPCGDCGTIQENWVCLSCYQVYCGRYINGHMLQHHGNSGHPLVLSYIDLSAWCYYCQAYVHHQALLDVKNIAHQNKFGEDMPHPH

in vitro = details: human, MRC9 cells
[4] = Stability in human plasma assessed as half life measured upto 60 mins by LC-MS/MS analysis; format: ADME, cell-free
[5] = Competitive inhibition of N-terminal His-SUMO tagged zebra fish recombinant HDAC6 catalytic domain 2 transfected with pET28b(+) vector in Escherichia coli BL21 (DE3) RILP cells incubated for 10 mins followed by addition of FITC-M344 measured af ter 10 mins by fluorescence polarization assay; design: species or system Danio rerio
MM1.S = experiment: Cytotoxicity against human MM1.S cells assessed as inhibition of cell growth incubated for 72 hrs measured by spectrophotometer analysis; format: functional, cell-based
[6] = Cytotoxicity against HUVEC cells assessed as inhibition of cell growth incubated for 72 hrs measured by spectrophotometer analysis; format: toxicity, cell-based; details: human
[7] = Cytotoxicity against human fetal neuronal stem cells assessed as inhibition of cell growth incubated for 72 hrs measured by spectrophotometer analysis; format: toxicity, cell-based, NSC
[8] = AUC/D in CD-1 mouse at 20 mg/kg, ip; format: ADME, organism-based; details: in vivo
[9] = AUCinfinity in CD-1 mouse at 20 mg/kg, ip; format: ADME, organism-based; design: time infinity, dose 20 mg/kg, route ip; details: in vivo
MV4-11 [10] = experiment: cells; format: functional, cell-based; details: Homo sapiens, MV4-11, 72 h
Histone deacetylase 8 = target: T2, Histone deacetylase 8 (Homo sapiens, UniProt Q9BY41); experiment: Inhibition of full length human recombinant HDAC8 expressed in Sf9 baculovirus system using FAM-labeled acetylated peptide as substrate by measuring fluorescence intensity by EMSA method
T2 sequence (Q9BY41 whole entry): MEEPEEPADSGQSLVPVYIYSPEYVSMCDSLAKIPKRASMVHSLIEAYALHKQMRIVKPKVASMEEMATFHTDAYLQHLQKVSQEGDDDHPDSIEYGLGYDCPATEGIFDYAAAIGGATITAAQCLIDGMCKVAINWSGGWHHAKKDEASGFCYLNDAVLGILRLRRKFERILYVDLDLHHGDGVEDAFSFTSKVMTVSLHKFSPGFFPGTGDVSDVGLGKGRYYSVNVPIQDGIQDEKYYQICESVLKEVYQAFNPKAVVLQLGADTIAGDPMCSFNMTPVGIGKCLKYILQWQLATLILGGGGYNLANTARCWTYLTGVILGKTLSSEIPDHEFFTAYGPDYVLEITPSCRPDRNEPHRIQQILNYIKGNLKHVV

[11] = Cytotoxicity against human HD-MB03 cells assessed as inhibition of cell growth incubated for 72 hrs measured by spectrophotometer analysis; format: functional, cell-based; details: HD-MB03, 72 h
[12] = Half life in CD-1 mouse at 20 mg/kg, ip; format: ADME, organism-based; details: in vivo
[13] = AUClast in CD-1 mouse at 20 mg/kg, ip; format: ADME, organism-based; design: time 0 - last, dose 20 mg/kg, route ip; details: in vivo
[14] = Cmax in CD-1 mouse at 20 mg/kg, ip; format: ADME, organism-based; design: dose 20 mg/kg, route ip; details: in vivo
Histone deacetylase 11 = target: T3, Histone deacetylase 11 (Homo sapiens, UniProt Q96DB2); experiment: Inhibition of full length human recombinant HDAC11 expressed in Sf9 baculovirus system using FAM-labeled acetylated peptide as substrate by measuring fluorescence intensity by EMSA method
T3 sequence (Q96DB2 whole entry): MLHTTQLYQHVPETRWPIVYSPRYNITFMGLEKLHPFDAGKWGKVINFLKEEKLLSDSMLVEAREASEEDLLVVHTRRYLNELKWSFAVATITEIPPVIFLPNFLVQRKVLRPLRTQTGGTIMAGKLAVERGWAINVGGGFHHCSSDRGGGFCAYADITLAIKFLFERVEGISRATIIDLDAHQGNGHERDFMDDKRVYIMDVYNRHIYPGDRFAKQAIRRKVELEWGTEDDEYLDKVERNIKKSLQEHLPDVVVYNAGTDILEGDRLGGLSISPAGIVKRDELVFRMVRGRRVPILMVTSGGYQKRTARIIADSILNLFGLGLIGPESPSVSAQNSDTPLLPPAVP

Histone deacetylase 3 = Histone deacetylase 3 (Homo sapiens, UniProt O15379); experiment: Inhibition of full length human recombinant HDAC3 expressed in Sf9 baculovirus system using FAM-labeled acetylated peptide as substrate by measuring fluorescence intensity by EMSA method
[15] = Lipophilicity, logP of the compound; format: physicochemical; details: octanol/water
[16] = Therapeutic window, ratio of IC50 for human fetal neuronal stem cells to IC50 for human HD-MB03 cells; format: ADME; details: fetal neuronal stem cells versus HD-MB03 cells, read-out: Ratio IC50
HD-MB03 [17] = experiment: Increase in acetylation of histone H3 in human HD-MB03 cells at 211 nM for 6 hrs by Western blotting anlaysis; format: functional, cell-based
MV4-11 [18] = experiment: Induction of apoptosis in human MV4-11 cells assessed as late apoptotic cells at 0.25 uM after 24 hrs by Annexin V/PI staining based flow cytometric analysis (Rvb=8.13%); format: functional
MV4-11 [19] = experiment: Induction of apoptosis in human MV4-11 cells assessed as late apoptotic cells at 2 uM after 18 hrs by Annexin V/PI staining based flow cytometric analysis; format: functional
HD-MB03 [20] = experiment: […] of self renewal of BTIC-enriched human HD-MB03 cells at 964 nM incubated for 72 hrs by sphere formation assay; format: functional, cell-based

Sequence of Histone deacetylase 3 (O15379 whole entry): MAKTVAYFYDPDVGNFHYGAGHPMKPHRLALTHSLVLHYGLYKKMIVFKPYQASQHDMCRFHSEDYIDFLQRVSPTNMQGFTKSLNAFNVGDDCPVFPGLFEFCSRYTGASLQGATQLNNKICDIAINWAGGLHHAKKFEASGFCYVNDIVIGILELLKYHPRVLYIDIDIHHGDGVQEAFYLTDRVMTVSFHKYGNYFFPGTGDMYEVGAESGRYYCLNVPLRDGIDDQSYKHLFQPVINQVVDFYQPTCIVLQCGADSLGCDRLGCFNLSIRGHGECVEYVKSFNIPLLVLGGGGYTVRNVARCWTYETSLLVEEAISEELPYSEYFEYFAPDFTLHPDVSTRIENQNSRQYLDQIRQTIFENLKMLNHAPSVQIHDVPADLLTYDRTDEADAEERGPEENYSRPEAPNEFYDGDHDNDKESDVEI

Compound | IC50 [3] | IC50 at 72 h (in vitro) | IC50 [5] | IC50 (MM1.S) | IC50 (MV4-11 [10]) | IC50 (Histone deacetylase 8) | IC50 (Histone deacetylase 11) | IC50 (Histone deacetylase 3) | also measured
CC(C)N(Cc1ccc(C(=O)NO)cc1)S(=O)(=O)c1c(F)c(F)c(F)c(F)c1F | 4.32 nM | > 20000 nM | 182 nM | 440 nM | – | – | – | – | Activity (MV4-11 [1]): Active; IC50 at 72 h [2]: 2300 nM; half-life [4]: 22 min; IC50 at 72 h [6]: 3700 nM
O=C(CCCCCCC(=O)Nc1ccccc1)NO [VORINOSTAT] | – | – | – | 1540 nM | – | – | – | – | –
O=C(NO)c1ccc(CN(C2CC2)S(=O)(=O)c2cc(F)c(F)c(F)c2F)cc1 | – | > 20000 nM | 173 nM | 480 nM | 400 nM | > 1000 nM | – | – | IC50 at 72 h [7]: 1430 nM; AUC/dose [8]: 79 ng·h/mL; half-life [4]: 41 min; AUC(0-inf) [9]: 1520 ng·h/mL
O=C(CCCCCCNC(=O)c1cnc(N(c2ccccc2)c2ccccc2)nc1)NO [RICOLINOSTAT] | – | > 20000 nM | 90.2 nM | 840 nM | – | – | – | – | IC50 [11]: 5220 nM
CCCCN(Cc1ccc(C(=O)NO)cc1)C(=O)Nc1ccccc1 [NEXTURASTAT A] | – | > 20000 nM | – | 1760 nM | – | – | – | – | AUC/dose [8]: 126 ng·h/mL; half-life [12]: 114 min; AUC(0-t) [13]: 2520 ng·h/mL; Cmax [14]: 750 ng/mL; AUC(0-inf) [9]: 2550 ng·h/mL
COc1cc(C(=O)NO)ccc1CN(C(C)C)S(=O)(=O)c1cc(F)c(F)c(F)c1F | > 1000 nM | > 50000 nM | – | 5750 nM | 5660 nM | 474 nM | > 1000 nM | > 1000 nM | –
CC(C)N(Cc1ccc(C(=O)NO)cn1)S(=O)(=O)c1cc(F)c(F)c(F)c1F | 121 nM | > 50000 nM | 1130 nM | 1600 nM | 1000 nM | > 1000 nM | > 1000 nM | > 1000 nM | –
CC(C)N(Cc1ccc(CC(=O)NO)cc1)S(=O)(=O)c1cc(F)c(F)c(F)c1F | 143 nM | > 25000 nM | – | 2400 nM | 2500 nM | 84.6 nM | > 1000 nM | > 1000 nM | –
CC(C)N(Cc1ccc(C(=O)NO)cc1)Cc1cc(F)c(F)c(F)c1F | 16.2 nM | > 50000 nM | – | 11400 nM | 7430 nM | > 1000 nM | > 1000 nM | 899 nM | logP [15]: 4.07
O=C(NO)c1ccc(CN(C2CCCC2)S(=O)(=O)c2cc(F)c(F)c(F)c2F)cc1 | 49.9 nM | > 50000 nM | 356 nM | 3300 nM | 2710 nM | > 1000 nM | > 1000 nM | > 1000 nM | –
COCCN(Cc1ccc(C(=O)NO)cc1)S(=O)(=O)c1cc(F)c(F)c(F)c1F | 27.8 nM | > 25000 nM | – | 710 nM | 660 nM | > 1000 nM | > 1000 nM | > 1000 nM | –
O=C(/C=C/c1cccc(S(=O)(=O)Nc2ccccc2)c1)NO [BELINOSTAT] | – | – | 213 nM | – | – | – | – | – | selectivity ratio [16]: 3.7; IC50 [11]: 320 nM
CC(C)CN(Cc1ccc(C(=O)NO)cc1)S(=O)(=O)c1cc(F)c(F)c(F)c1F | 24.6 nM | > 50000 nM | 137 nM | 690 nM | 520 nM | > 1000 nM | > 1000 nM | > 1000 nM | –
O=C(CCCCCCNC(=O)c1cnc(N(c2ccccc2)c2ccccc2Cl)nc1)NO [CITARINOSTAT] | – | > 30000 nM | 154 nM | – | – | – | – | – | inhibition (MV4-11 [1]): Active; Activity (HD-MB03 [17]): Active; IC50 at 72 h [7]: 4350 nM; Activity (MV4-11 [18]): 8.31%; IC50 [11]: 5800 nM; Activity (MV4-11 [19]): 24%; Activity (HD-MB03 [20]): Active
O=C(NO)c1ccc2c(c1)CCN(S(=O)(=O)c1cc(F)c(F)c(F)c1F)C2 | 50.4 nM | > 25000 nM | – | 1540 nM | 900 nM | > 1000 nM | > 1000 nM | > 1000 nM | –
CC(C)N(Cc1ccc(C(=O)NO)cc1)C(=O)c1c(F)c(F)c(F)c(F)c1F | – | > 50000 nM | – | 12300 nM | – | – | – | – | –

From ChEMBL document CHEMBL5154721, “Discovery of HDAC6-Selective Inhibitor NN-390 with in Vitro Efficacy in Group 3 Medulloblastoma” (J Med Chem, 2022)
